Tests used:
Test in all cases: relative viability (nuclei count vs DMSO), 5 days (fraction); higher = more cells survive
BI-D1870 + Linsitinib = compound: CC(C)CCN1c2nc(Nc3cc(F)c(O)c(F)c3)ncc2N(C)C(=O)C1C [BI-D1870] + C[C@]1(O)C[C@@H](c2nc(-c3ccc4ccc(-c5ccccc5)nc4c3)c3c(N)nccn32)C1 [Linsitinib] (partner 1 µM)
In short: (§1)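 Lung cancer cell lines were seeded in 1536-well plates and dosed by pin tool the next day, with either a single drug or a fixed anchor-drug dose combined with five library-drug doses (not always all listed) spaced in √10 steps. Five days later, one step fixed the cells and stained their nuclei (final 0.05% Triton X-100, 1% formaldehyde, 1 ug/ml Hoechst), and nuclei were counted on 4× images. Relative viability is the nuclei count in treated wells divided by the count in vehicle wells, and each value is the median of duplicate plates.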

BI-D1870 + Phenformin = compound: CC(C)CCN1c2nc(Nc3cc(F)c(O)c(F)c3)ncc2N(C)C(=O)C1C [BI-D1870] + N=C(N)NC(=N)NCCc1ccccc1 [Phenformin] (partner 250 µM)
In short: as §1

BI-D1870 + Vorinostat = compound: CC(C)CCN1c2nc(Nc3cc(F)c(O)c(F)c3)ncc2N(C)C(=O)C1C [BI-D1870] + O=C(CCCCCCC(=O)Nc1ccccc1)NO [Vorinostat] (partner 1 µM)
In short: as §1

Zebularine + Alpelisib = compound: O=c1ncccn1[C@@H]1O[C@H](CO)[C@@H](O)[C@H]1O [Zebularine] + Cc1nc(NC(=O)N2CCC[C@H]2C(N)=O)sc1-c1ccnc(C(C)(C)C(F)(F)F)c1 [Alpelisib] (partner 2 µM)
In short: as §1

## UMC-11
BI-D1870 + Linsitinib; first compound 0.04 µM
  relative viability: 1.06
BI-D1870 + Linsitinib; first compound 0.1265 µM
  relative viability: 0.924
BI-D1870 + Linsitinib; first compound 0.4 µM
  relative viability: 0.972
BI-D1870 + Linsitinib; first compound 1.265 µM
  relative viability: 1.06
BI-D1870 + Linsitinib; first compound 4 µM
  relative viability: 0.693
BI-D1870 + Phenformin; first compound 0.04 µM
  relative viability: 0.332
BI-D1870 + Phenformin; first compound 0.1265 µM
  relative viability: 0.285
BI-D1870 + Phenformin; first compound 0.4 µM
  relative viability: 0.33
BI-D1870 + Phenformin; first compound 1.265 µM
  relative viability: 0.295
BI-D1870 + Phenformin; first compound 4 µM
  relative viability: 0.183
BI-D1870 + Vorinostat; first compound 0.04 µM
  relative viability: 0.394
BI-D1870 + Vorinostat; first compound 0.1265 µM
  relative viability: 0.377
BI-D1870 + Vorinostat; first compound 0.4 µM
  relative viability: 0.337
BI-D1870 + Vorinostat; first compound 1.265 µM
  relative viability: 0.329
BI-D1870 + Vorinostat; first compound 4 µM
  relative viability: 0.128
Zebularine + Alpelisib; first compound 1 µM
  relative viability: 1.08
Zebularine + Alpelisib; first compound 3.162 µM
  relative viability: 0.958
Zebularine + Alpelisib; first compound 10 µM
  relative viability: 0.419
Zebularine + Alpelisib; first compound 31.62 µM
  relative viability: 0.789
Zebularine + Alpelisib; first compound 100 µM
  relative viability: 0.419

From the supplement of paper PMC10307832
